{
  "source": "patent US9428520B2",
  "about": "“Daphne genkwa extracts, and pharmaceutical composition containing fractions of the extracts or compounds separated from the extracts as active ingredients for preventing or treating atopic dermatitis” (priority 2011, dated 2016)",
  "key": {"Balb/C mouse": {"test_system": "Balb/C mouse", "experiment": "Atopy treatment effect in DNCB atopy induced mouse model", "format": "in vivo", "details": "score 10˜13 group with severe atopic symptoms, FIG. 4", "protocol": "DNCB, one of allergens, was spread on the shaved skin of a normal Balb/C mouse to induce atopy intentionally. Atopy symptoms varied from the dose of DNCB and the treatment period, which were classified into different score groups (score 4˜8 group and score 10˜13 group). In the mouse group (score 4˜8 group) which was treated with a lower dose of DNCB, atopic skin was recovered to normal skin within 24 hours from the treatment of genekwadapnin or yuanhuacine. […] At that time, the test was performed in duplicate with 10 mice each."}, "atopy patients": {"test_system": "atopy patients", "experiment": "Atopy treatment effect in atopy patient", "format": "in vivo, human", "details": "5 ug/ml spread on the skin, FIG. 5", "protocol": "After spreading genekwadapnin or yuanhuacine on the skin of atopy patients, atopy treatment effect of the compound was confirmed.\nParticularly, 5 ug/ml of genekwadapnin or yuanhuacine was spread on the skin of atopy patients, followed by observation for 5˜20 days. The treatment effect was confirmed by Medream Skin Clinic (Goejeong-dong, Seogu, Daejeon, Korea)."}, "A549 cells": {"test_system": "A549 cells", "experiment": "RT-PCR of cytokine mRNA levels in A549 cells", "format": "cell-based, human", "details": "2 ng, FIG. 2A", "protocol": "(§1) Human cell lines (A549, NK92, muDC, Jurkat) were cultured in a 37° C., 5% CO2 humidified incubator.\n(§2) RT-PCR was performed to investigate the changes of mRNA levels in relation to the inducement of IFN-γ, IL-2, and IL-12 in A549, NK92, muDC, and Jurkat cells cultured in <Example 2>. These cells were cultured in the presence of 2 ng of genekwadapnin or yuanhuacine for 12 hours.\n(§3) Phase II RT-PCR was performed with oligo-dT primer, reverse transcriptase, specific primer set, and Taq polymerase (Takara, Shiga, Japan). Total RNA was isolated according to the standard protocol. cDNA was synthesized by using Accusript High Fidelity 1st Strand cDNA Synthesis Kit (Stratagene) according to the manufacturer's instruction. 1 μl of the synthesized cDNA was used for PCR with 20 μl of reaction mixture containing 0.5 U ExTaq DNA polymerase, 1× buffer, 1 mM dNTP mix (Takara) and specific primer set. PCR amplification was performed using GeneAmp PCR system 2700 (Applied Biosystems, Foster city, CA, USA) as follows: predenaturation at 94° C. for 5 minutes, denaturation at 94° C. for 45 seconds, annealing at 56° C. for 45 seconds, polymerization at 72° C. for 1 minute, 25˜40 cycles from denaturation to polymerization, and final extension at 72° C. for 7 minutes. PCR primers shown in [Table 1] were designed by using Primer 3 program, which were purchased from Bioneer (Daejeon, Korea). At this time, GAPDH was used as the internal control.\n(§4) The PCR product was electrophoresed on 1.5% agarose gel, which was stained with ethidium bromide (EtBr) and then visualized by using Gel Doc 2000 UV trans-illuminator (Bio-Rad Laboratories, Hercules, Calif., […]). Analysis was performed with Quantity One software (Bio-Rad Laboratories)."}, "NK92 cells": {"test_system": "NK92 cells", "experiment": "RT-PCR of cytokine mRNA levels in NK92 cells", "format": "cell-based, human", "details": "2 ng, FIG. 2A", "protocol": "as §1\nParticularly, NK92 (human NK lymphoma), the IL-2 dependent NK cell line, was purchased from ATCC (American Type Culture Collection). The NK92 cell line was maintained in α-MEM (Life Technologies, Karlsruhe, Germany) supplemented with 20% FCS (HyClone, Logan, Utah), 2 mM […], 100 μg/ml penicillin, 100 μg/ml streptomycin (Life Technologies) and 100 U/ml IL-2 (Chiron, Emeryville, Calif.).\nas §2\nas §3, with “At this time, GAPDH was used as the internal control.” left out\nas §4"}, "PKC isotype": {"test_system": "PKC isotype", "experiment": "Intracellular mechanism: phosphorylation level of PKC isotype in NK92 cells (western blot)", "format": "cell-based, human", "details": "500 ng/ml, 12 hours, FIG. 6", "protocol": "To investigate the intracellular mechanism of genekwadapnin or yuanhuacine, the NK92 cells cultured in <Example 2> were treated with genekwadapnin or yuanhuacine at the concentration of 500 ng/ml. 12 hours later, phosphorylation level of PKC isotype was investigated by using antibodies. The quantity of protein used herein was confirmed by using GAPDH.\nParticularly, the cells treated with genekwadapnin or yuanhuacine were dissolved in ice by using cold SDS-lysis buffer [(50 mM HEPES, 150 mM NaCl, 0.2 mM EDTA, 0.5% NP-40, 0.1% SDS, 1 mM Na3VO4, 10 mM NaF, and complete Protein Inhibitor Cocktail (Roche)] for 30 minutes. The dissolved cell solution was spinned at the speed of 13,000 rpm for 30 minutes in a high-speed rotating machine to precipitate insoluble part and then water soluble part was separated. The separated cell aqueous solution was quantified, followed by electrophoresis using 10˜20% SDS-PAGE. Cellular protein separated on the gel was transcribed onto PVDF membrane (Millipore, Billerica, Mass., USA) at 100 V for 2 hours. To confirm PCK isotype phosphorylated in the cells, poly rabbit anti-PKD1, -phosphoPKD1 (Ser916), -phosphoPKDl (Ser744/748), -phosphoPKCα/βII, -phosphoPKCδ, -phosphoPKCθ, and -phosphoPKCζ/λ IgG (Cell signaling Technology, USA) (1:1000) were used as primary antibodies. As a secondary antibody, horseradish peroxidase peroxidase-conjugated goat anti-rabbit IgG (Santa Cruz Biotechnology, USA) (1:3000) was treated at room temperature for 60 minutes. To confirm the equal amount of cellular protein, poly rabbit anti-GAPDH IgG (Santa Cruz Biotechnology, Pasadena, Calif., USA) was used."}, "NC mouse": {"test_system": "NC mouse", "experiment": "Atopy treatment effect in NC mouse model", "format": "in vivo", "details": "local spreading on skin, FIG. 3", "text": "NC mouse is the mouse showing typical atopy symptom when it is raised in the conventional space. Genekwadapnin or yuanhuacine was spread locally on NC mouse starting to show atopy symptom, followed by observation of changes of atopy symptom."}, "[1]": {"details": "NK92 cells (printed NR92), 12 hours after treatment"}},
  "data": [
    {"compound": "C=C(C)[C@@]12OC3(/C=C/C=C/CCCCC)O[C@@H]1[C@@H]1[C@@H]4O[C@]4(CO)[C@@H](O)[C@]4(O)C(=O)C(C)=C[C@H]4[C@@]1(O3)[C@H](C)[C@H]2OC(=O)c1ccccc1", "note": "[yuanhuacine]", "values": [
      {"measurement": "speed of recovery versus the control group", "setting": "Balb/C mouse", "value": "at least two times faster"},
      {"measurement": "time until atopic skin was recovered to normal", "setting": "atopy patients; minor symptoms", "value": 5, "unit": "days"},
      {"measurement": "time until atopic skin was recovered to normal", "setting": "atopy patients; severe symptoms", "value": 20, "unit": "days"},
      {"measurement": "transcript of type II cytokine, IL-4", "setting": "A549 cells; 12 hours after treatment", "value": "not induced"},
      {"measurement": "transcripts of Type I cytokines, IFN-γ, IL-2, and IL-12", "setting": "A549 cells; 12 hours after treatment", "value": "significantly increased"},
      {"measurement": "transcripts of IL-15 and IL-18", "setting": "A549 cells; 12 hours", "value": "not controlled"},
      {"measurement": "transcript of type II cytokine, IL-4", "setting": "NK92 cells; [1]", "value": "not induced"},
      {"measurement": "transcripts of Type I cytokines, IFN-γ, IL-2, and IL-12", "setting": "NK92 cells; [1]", "value": "significantly increased"},
      {"measurement": "transcripts of IL-15 and IL-18", "setting": "NK92 cells; NK92 cells, 12 hours", "value": "not controlled"},
      {"measurement": "PKD1 level", "setting": "PKC isotype", "value": "not changed"},
      {"measurement": "phosphorylation of other types of PKC isotype", "setting": "PKC isotype", "value": "not phosphorylated"},
      {"measurement": "phosphorylation of serin residues (744th/748th, and 916th sites of PKD1 protein)", "setting": "PKC isotype", "value": "confirmed"},
      {"measurement": "atopy symptom on the back where the compound was spread", "setting": "NC mouse", "value": "significantly reduced"},
      {"measurement": "skin biopsy: distribution of inflammatory cells, phenotype of the treated area", "setting": "NC mouse", "value": "almost normal phenotype"}
    ]}
  ]
}
